Literature values, collected in US10918604B2, “Solid oral dosage forms of eslicarbazepine” (Jubilant Generics Limited, priority 2015, dated 2021).

Conditions: reported in background

CC(=O)O[C@H]1Cc2ccccc2N(C(N)=O)c2ccccc21 [Eslicarbazepine acetate, (S)-10-acetoxy-10,11-dihydro-5H-dibenzo[b,f]azepine-5-carboxamide]
solubility in water: poorly soluble in water
